Experiments:
human CD4+ T cells = assay: Induced Treg differentiation assay; format: cell-based; details: U87 cells preincubated with 20 µM ATP plus heparin; supernatant added to CD4+ T cells, day 5 flow cytometry
Description: Human CD4^+ T cells were extracted from buffy coats by positive selection using the StraightFrom™ Buffy Coat CD4 MicroBead Kit (Miltenyi Biotec, Bergisch Gladbach, Germany). CD4^+ T cells were stimulated by ImmunoCult™ Human CD3/CD28/CD2 T Cell Activator at day 1. At days 1 and 3, the indicated compounds or U87 cell supernatant, either of untreated or of heparin-treated cells were added to CD4^+ T cells. Cells were harvested at day 5 and were investigated for CD25 and FoxP3 expression. Therefore, cells were washed once with staining buffer (1% BSA, 0.01% NaN3 in PBS). To avoid nonspecific binding, cells were blocked for 15 min with 3% BSA in PBS. Anti-CD25 antibody (PerCP/Cyanine5.5 anti-human CD25 antibody, RRID : AB_2125478, BioLegend Inc, San Diego, CA, USA) was added and the cells were incubated for 30 min in the dark. Subsequently, cells were washed once with staining buffer and fixed in 150 µL of fixation buffer (3% paraformaldehyde (PFA), 0.1% saponin, and 0.5% Tween-20 in Dulbecco's phosphate-buffered saline) for 30 min at 4°C. […] Samples were measured in triplicates using the Guava® easyCyte HT Flow Cytometer (Merck Millipore, Billerica, MA, USA). Compensation and FMO (fluorescence minus one) controls were conducted. […] Data were evaluated using the FlowJo™ v10.5.3 Software (RRID : SCR_008520, BD Life Sciences, Franklin Lakes, NJ, USA) and Graphpad PRISM 8.4.0.

[1] = system: ectonucleotidases expressed in U87 cell membrane preparations; assay: Enzymatic assay on U87 cell membrane preparations (adenosine formation, CE); format: biochemical, human; details: 6 at 3 and 30 µM, 7 at 35 µM
Description: U87 glioblastoma cells were grown in cell culture dishes until reaching a fully covered confluent cell layer. Cells were cultivated at 37°C and 5% CO2 in DMEM with additions of 10% FCS, 1% penicillin/streptomycin (P/S) mixture and 1% L-glutamine. When confluent, the cell culture media was carefully removed and cells were frozen at -20°C overnight. The cells were then scraped off with a cell scraper using 2-3 mL of buffer (5 mM Tris, 2 mM EDTA, pH 7.4), homogenized and centrifuged for 10 min at 1000 g. The supernatant was collected and centrifuged for 60 min at 48000 g and 4°C. The pellet was then resuspended twice with Tris buffer, pH 7.4, followed by vortexing and centrifugation. The whole procedure was performed on ice. Finally, the pellet was resuspended and homogenized. A protein concentration of 1.5 mg/mL was determined with the Bradford method ([35]), and the protein was kept at -20°C until used. The enzymatic assay was performed by incubating the membrane preparation and the substrate at 37°C and 500 rpm for 30 min, followed by heat inactivation at 95°C for 5 min. For the determination of kinetic parameters, several substrate concentrations (from 6 to 500 µM of ATP or AMP) were utilized and incubated with 10 µg of membrane preparation for 30 min at 37°C, followed by heat inactivation. Capillary electrophoresis (CE) was used for analysis and quantification of the enzymatic product according to published procedures ([11], [36]). For the determination of the enzymatic activity 400 µM of ATP were employed, and three different amounts of membrane preparation (6, 10 and 30 µg of protein) were utilized. A positive control using the known NPP1 inhibitor PSB-POM-141 (20 µM) was performed ([19]). Data were obtained from three independent experiments each in duplicate measurements. […] Controls were run in parallel.

CO[C@H]1O[C@H](COS(=O)(=O)O)[C@@H](O[C@@H]2O[C@@H](C(=O)O)[C@@H](O[C@H]3O[C@H](COS(=O)(=O)O)[C@@H](O[C@@H]4O[C@H](C(=O)O)[C@@H](O[C@H]5O[C@H](COS(=O)(=O)O)[C@@H](O)[C@H](O)[C@H]5NS(=O)(=O)O)[C@H](O)[C@H]4O)[C@H](OS(=O)(=O)O)[C@H]3NS(=O)(=O)O)[C@H](O)[C@H]2OS(=O)(=O)O)[C@H](O)[C@H]1NS(=O)(=O)O [Compound 6, Fondaparinux]
Treg formation (CD25/FoxP3 positive cells) induced by supernatant of ATP-treated U87 cells (human CD4+ T cells): reduced Treg formation even below that of the control cells
inhibition of the formation of adenosine from ATP [1]: inhibited the formation of adenosine in a dose-dependent manner

From publication PMC10497752, “Heparins are potent inhibitors of ectonucleotide pyrophosphatase/phospho-diesterase-1 (NPP1) – a promising target for the immunotherapy of cancer” (Frontiers in Immunology, 2023)
